# Test results: the pKa sets of Baltruschat and Czodrowski (2020)
# Conditions: acidic group
row,Structure (SMILES),pKa
1,C=C(C)[C@@H]1CN(C(C)=O)[C@H](C(=O)OC)[C@@H]1CC(=O)O,4.6
2,O=C([O-])c1ccc(NS(=O)(=O)c2ccccc2)cc1,7.75
3,C=CC(Cl)C(=O)O (stereo not given),2.54
4,O=Cc1ccccc1O,8.36
5,Cc1ccc(Cl)cc1C(=O)O,3.63
6,CCC[NH+](CCC)CCCNC(=O)/C=N/O,8.73
7,N#CC(C#N)=NNc1cccc(Cl)c1,6
8,O=C(O)C[NH+](CCNS(=O)(=O)c1ccccc1)CC(=O)O,2.1
9,O=C(O)c1ccco1,3.18
10,Cc1ccc([N+](C)(C)C)cc1O,8.2
11,Cc1cc(Nc2ccc(O)cc2)c(C(C)C)cc1O,9.85
12,N#CC(C#N)=NNc1ccccc1,6.55
13,O=[PH](O)C([NH2+]Cc1cc[nH+]cc1)c1ccccc1O (stereo not given),2.35
14,O=C(c1ccccc1)c1cccc([N+](=O)[O-])c1C(=O)O,2.39
15,S=C(S)N1CCCC1,2.97
16,O=C(N/N=C/c1ccccc1O)c1ccncc1,8.31
17,CCOC(=O)C(Cc1cccc(C)c1)C(C)=O (stereo not given),11.9
18,C[n+]1ccc(O)nc1,1.91
19,Nc1ccncn1,18.4
20,O/N=C/C(Cl)=N\O,8.24
21,O=C1Cc2cc(O)ccc21,7.24
22,C=C(C)[C@H]1C[NH2+][C@H](C(=O)O)[C@H]1CC(=O)OC,1.95
23,Cc1ccc(C(=O)NS(=O)(=O)c2ccc(N)cc2)cc1C,4.66
24,Cc1ccc(C(=O)O)c(Br)c1,3.09
25,O=C(O)Cc1ccccc1,4.27
26,CCCOc1ccccc1C(=O)O,4.24
27,O=[N+]([O-])c1n[nH]c(-n2cncn2)n1,2
28,O=S(=O)(Nc1ccc(Br)cc1)c1ccccc1,7.78

row,Structure (SMILES),pKa
1,NS(=O)(=O)c1cccc(Cl)c1,9.04
2,O=C([O-])c1ccc([N+](=O)[O-])cc1O,10.3
3,CO[C@H]1O[C@H](C(=O)O)[C@H](O)[C@H](O)[C@H]1O,3.55
4,Oc1ccc(-c2cc(=S)ss2)cc1,7.86
5,CC1(C)CC(O)[N+](C)(C)C1 (stereo not given),8.7
6,O=[N+]([O-])c1cc(O)ccc1O,7.42
7,Cc1cccc(Cl)c1C(=O)O,2.59
8,Cc1cccc(C)c1C(=O)O,3.23
9,CSC(=S)N(C)CC(=O)O,2.98
10,CC[NH2+]CC[SeH],5.04
11,O=C([O-])CNC(=O)c1cccc(O)c1O,7.7
12,COc1cc2c(O)cc(C)[nH+]c2c2c(C)c(C)oc12,2.91
13,O=C([O-])CCC(=O)NOCc1ccccc1,10.2
14,CC(=N\O)/C(CO)=N/[O-],12.1
15,O=C(O)c1cccc(O)c1,4.07
16,O=C(O)c1csc2ccccc12,4.24
17,Oc1ccc2cc(Br)ccc2c1,9.2
18,O=CNO,8.77
19,[NH3+]CCc1cccc(O)c1,9.27
20,O/N=C/c1ccncc1,9.91
21,Cc1cccc(C(=O)O)c1[N+](=O)[O-],2.91
22,O=C(O)/C=C(\I)c1ccccc1,3.4
23,O=C(O)[C@@H]1CC[C@H](C(=O)O)[Se]1,3.55
24,C[NH+](C)CC(=O)O,1.99
25,Cn1cnc2[nH]c(=O)[nH]c(=S)c21,6.8
26,[O-]c1ncc2[nH]cnc2n1,11.9
27,Cc1ccc(NS(=O)(=O)c2ccccc2)cc1,8.63

# Same assay, conditions: basic group
row,Structure (SMILES),pKa
1,Cc1ccc2c(c1)c1c3n2CCN=C3CCC1,8.57
2,C1CCC(C2=NCCC2)CC1,6.05
3,C1CCc2nnc3c(c2CC1)CCCC3,6.03
4,CCN(CCC#N)CCC#N,4.55
5,COc1ccc2c3c1O[C@H]1[C@@H](O)CC[C@H]4[C@@H](C2)N(C)CC[C@@]341,8.71
6,CC1=CCCN1C,11.9
7,CCOC(=O)c1cnc2cc([N+](=O)[O-])ccc2c1[O-],9.32
8,CN(CC1CO1)CC1CO1 (stereo not given),6.45
9,N#CC(C#N)=NNc1cccc(Cl)c1,-0.78
10,O=C(O)c1ccco1,-0.53
11,N#CC(C#N)=NNc1ccccc1,-0.82
12,[S-]c1ccnc([S-])n1,11.2
13,C=O,1.15
14,COc1ccc2ccc(OC)c(N3CCOCC3)c2c1N1CCOCC1,13
15,CC(=O)Nc1ccncc1,5.87
16,CCCN(CCO)CC(C)O (stereo not given),8.9
17,O=C(N/N=C/c1ccccc1O)c1ccncc1,3.33
18,C=C[C@]1(O)C[C@@H](C)N[C@H]2CCCC[C@@H]21,9.51
19,NCCNCCc1ccccc1,9.44
20,C=CC(C)(C)NC(C)(C)CC,10.8
21,c1ccc(-c2ccc(NCCN3CCOCC3)nn2)cc1,6.74
22,Nc1ccncn1,5.7
23,Nc1ccc2ccccc2c1[N+](=O)[O-],-0.92
24,CC(C)NCCCCCC[NH2+]C(C)C,10.9

row,Structure (SMILES),pKa
1,Nc1nc([S-])c2ncn([C@H]3O[C@@H](CO)[C@H](O)[C@@H]3O)c2n1,8.34
2,CN1CCC[C@H]1c1cccnc1,7.85
3,N=C(N)Nc1nc(N)nc(NC(=N)N)n1,9.8
4,CCCc1ccc([C@@H]2CCC[NH+]2C)cn1,3.65
5,Cc1ccc([N+](=O)[O-])c2c(NCCC[NH+](C)C)cc(-c3ccccc3)nc12,5.43
6,CN(C)c1cccnc1,6.67
7,OC[C@@H]1O[C@H](n2ccc3c2ncn2ccnc32)[C@@H](O)[C@H]1O,5.49
8,C=CC(=O)NCCCN(C)C,9.23
9,C[n+]1nc(-c2ccccc2)ccc1NCCN1CCOCC1,5.31
10,CN1CCCC(C(=O)[O-])C1 (stereo not given),9.7
11,Cc1csc2nccn12,5.36
12,c1ccc(-c2cnc(-c3ccccc3)o2)cc1,0.84
13,COC(=O)c1ccccn1,2.21
14,CN(C)Cc1ccc(O)c(O)c1O,8.26
15,c1ccc(C(OCCN2CCCCC2)c2ccccc2)cc1,8.03
16,c1cncc(-c2ccc[nH+]c2)c1,3
17,CC1ONCc2ccccc21 (stereo not given),3.6
18,CC/C=C/CC1=NC(C(=O)[O-])[C@@H]2SC(C)(C)C(C(=O)[O-])N12 (stereo not given in full),7.8
19,COC(=O)c1cccnc1,3.23
20,Nc1c(Cl)cc([N+](=O)[O-])cc1Cl,-2.98
21,NCCCCc1cccnc1,10.2
22,CC(C)N(C)C,10.3
23,COC(=O)C(N)CCONC(N)=O (stereo not given),6.95
24,N[C@H]1C[C@H]2CCCC[C@@H]2C[C@@H]1[NH3+],6.68

row,Structure (SMILES),pKa
1,Oc1ccccc1CN1CCCNCCC[NH2+]CCC1,6.64
2,c1cc(N2CCCCC2)ccc1N1CCCCC1,6.5
3,CCCCCN(CCO)CC(O)CC (stereo not given),9.1
4,Nc1ncccc1C(=O)[O-],6.59
5,CN/C=N/c1cccc(-c2csc(N=C(N)N)n2)c1,8.29
6,O=[N+]([O-])c1cccc2cnccc12,3.46
7,CNC(=O)c1ccccn1,2.4
8,OC1C=CC=CC=C1,-7
9,CCC(O)CN(CC)CC(O)CC (stereo not given),9.2
10,O=C(O)c1cccc(O)c1,-1.01
11,CSCc1cccc(CSC)n1,4.19
12,Nc1ccc(C(O)(c2ccccc2)c2ccc(N)cc2)cc1,5.83
13,O/N=C/c1ccncc1,4.58
14,COc1ccc2c3c1O[C@H]1CCC[C@H]4[C@@H](C2)N(C)CC[C@]314,8.83
15,C/N=c1/sc2c(n1C)CCCC2,10
16,Cc1cc(C)c2ccc3cccnc3c2n1,5.96
17,CC(C)N(CCC(c1ccccc1)c1ccccn1)C(C)C (stereo not given),10.5
18,Cn1cnc2[nH]c(=O)[nH]c(=S)c21,0.3
19,[O-]c1ncc2[nH]cnc2n1,8.43
20,CCN1CCCCC1C (stereo not given),10.7
21,[O-]c1ncccn1,9.17
22,c1nc(NC2CCCCC2)c2ncn(C3CCCCC3)c2n1,4.4
